# Data reported in US11229635B2, “Method of treating fibrosis” (BCN Biosciences L.L.C., priority 2016, dated 2022).
# Columns and labels:
# [1] = tested on: inflammatory peritoneal macrophages; assay: Cytokine release by LPS-stimulated inflammatory peritoneal macrophages; type: cell-based; conditions: stimulation with LPS in vitro
# Source text: Because of the focus on lung fibrosis, we examined the effects of irradiation on macrophages in terms of their ability to modulate fibroblast responses. […] In addition, BCN-512 blocks the ability of irradiated macrophages to stimulate fibroblast proliferation. The ability of BCN-512 to reprogram macrophages is likely highly relevant to its ability to mitigate radiation induced fibrosis and tissue damage
# [2] = tested on: radiation dermatitis (erythema, edema); assay: Draize scoring of dermal radiation sites, dermal dosing 10 mg/mL Day 0 to 6; type: in vivo; conditions: Avg of Days 1-6 and 8
# [3] = tested on: immature myeloid cells; assay: Immature myeloid cells after WBI and WTLI; type: in vivo
# Source text: 2. […] They co-express CD11b, Ly6G, and Ly6C, and are required for mitigation by BCN-512, at least after WBI.
# [4] = tested on: macrophages co-cultured with fibroblasts; assay: Macrophage-fibroblast co-culture, CFSE proliferation; type: cell-based, mouse
# Source text: Cell proliferation was used as a sensitive in vitro endpoint because it can also be used to detect cell death. Cells were labeled with the fluorescent dye CF SE, which becomes diluted as the cells proliferate over time. We performed a series of experiments using tumor cell lines to validate the assay and determine the effective ratios of macrophages to target cells (not shown) before performing experiments with normal early-pass murine embryo fibroblasts. To study the effects of BCN-512 and macrophages on fibroblast cell proliferation and death, irradiated (2 or 6 Gy) macrophages and fibroblasts were added at various ratios. Normal mouse fibroblasts were labelled with CF SE and added to the macrophages in 96-well plates. BCN-512 (10 μM) and/or LPS (1 μg/mL) or diluent were then added, and the plates cultured for 1, 2, or 3 days. The purpose of the LPS was to activate the macrophages. BCN-512 was added 1 hour after LPS, which was added immediately after irradiation
# [5] = Pharmacokinetic profile after sc injection; type: in vivo; conditions: mouse, plasma; C57BL/6 male mice, 10 mg/kg sc, low % deoxycholate formulation
# Procedure: FIG. 6A: Pharmacokinetic profile for C57BL/6 male mice receiving a 10 mg/kg sc injection of 512 in a low % deoxycholate formulation.
# Because the side effects of Cremophor are undesirable for an MCM candidate, alternative formulations are being tested for further development of 512 for the lung DEARE indication.
# [6] = tested on: radiation-induced pneumonitis and lung fibrosis; assay: Thoracic lung irradiation: survival, lung histology, fibrosis; type: in vivo, mouse
# Procedure: Our goal is to develop a drug to protect lung from ionizing radiation that is administered subcutaneously and has a favorable risk/benefit profile when administered 24 hours or later after radiation exposure. The drug, BCN 512, originally discovered in the UCLA CMCR, is a novel drug that emerged from high-throughput screening of small molecule libraries, and is now under investigation as a radiation injury mitigator. In our efforts to develop the drug as a lung MCM to treat the Delayed Effects of Acute Radiation Exposure (DEARE), we use the C57BL/6 and C3H mouse models. These models appear to recapitulate human lung fibrosis and pneumonitis, respectively, based upon the distinct sensitivity of the two strains (1, 2).
# Radiation fibrosis is a progressive, dose-related, late complication of radiation exposure, with animals and humans surviving for some time with non-lethal damage. […] 512 works by altering the inflammatory infiltrate into the lung.
# A: Lung histology of C57BL/6 mice receiving local thoracic radiation (radiation of the lung area) presenting a focal area of increased cellularity and edema on the upper left quadrant. Adjacent to this is increased cellularity (the lacey patterning). The lower right quadrant, emphysema is present with large clear areas indicating where alveoli have collapsed to present large open areas. B. Histopathology of C57BL/6 mouse lung under identical radiation treatment as A, but also treated with 5 mg/kg BCN512 once per day every 24 hours for 5 doses.
# In both lobes, significant collapse of alveoli can be seen along with hyper cellularity (dark areas) and pronounced emphysema (large open areas) presenting fibrosis. C, D are separate lobes from the same animal treated identically as above but receiving BCN512 at 5 mg/kg daily for 5 days after 14.5Gy local thoracic radiation.
# [7] = tested on: lung organoids; assay: Ex vivo 3D lung organoid culture after radiation; type: cell-based, mice; conditions: 6 Gy; 28 μM at 1-hour post-radiation exposure
# Procedure: 512 induces lung organoid growth in ex vivo cultures: Ex vivo 3D organoid cultures are one of the best models for studying stem cell growth and proliferation because organoid growth depends primarily on the presence of stem cells. For these experiments, mice were euthanized by CO2 or ketamine-xylazine administration and the abdominal aorta was exposed and exsanguinated. The thoracic cavity was opened, and the lungs were exposed. Blood was flushed from the lung vasculature by perfusion with 10 mL of sterile cold PBS through the right ventricle. The trachea was cannulated with a 24-G cannula, and 1.2 mL of 10 U dispase (BD) was then injected into the lungs. The trachea and lungs were removed from the chest en-block and incubated for 20 minutes at room temperature (RT). The lung lobes were dissected from the trachea, heart, and rest of mediastinal structures and then finely minced and incubated for 10 more min with 2 mL of dispase. The suspension was passed through an 18-G needle 4-5 times to help open the lung compartments. If sticky DNA was detected, 10-30 μL of 4 mg/mL DNase I (Sigma) was added to the cell suspension and incubated at 37° C. for 5 min. The cells were filtered through a 100-μ cell strainer (BD Biosciences) to obtain single-cell suspensions (SCS). Red blood cells were lysed using RBC lysing buffer. […]
smiles,measurement,setting,value
"O=[N+]([O-])c1ccc(S(=O)(=O)N2CCN(c3ccccc3)CC2)cc1 [BCN512, 1-[(4-nitrobenezene)sulfonyl]-4-phenyl piperazine]",amount of pro-inflammatory cytokines released,[1],decreases
same,Average Draize score Edema,[2],0
same,Average Draize score Edema Site 2,[2],0
same,Average Draize score Edema Site 3,[2],0.5714
same,Average Draize score Edema Site 4,[2],0
same,Average Draize score Edema Site 5,[2],0.8571
same,Average Draize score Edema Site 6,[2],0
same,Average Draize score Erythema Site 2,[2],0.4286
same,Average Draize score Erythema Site 3,[2],1.429
same,Average Draize score Erythema Site 4,[2],0.1429
same,Average Draize score Erythema Site 5,[2],1.571
same,Average Draize score Erythema Site 6,[2],0.8571
same,"number of immature myeloid cells (CD11b, Ly6G, Ly6C)",[3],greatly increases
same,toxicity of LPS-treated macrophages to fibroblasts,"[4]; 10 μM, LPS 1 μg/mL, ratios of 20:1 or 25:1",practically abolished the toxicity associated with LPS treatment
same,increase of viable fibroblasts by irradiated macrophages,"[4]; 6 Gy macrophage irradiation, 3 days",seemed to neutralize this function
same,Cmax,[5],132 ng/mL
same,Tmax,[5],2 h
same,lung fibrosis histology,"[6]; 14.5Gy local thoracic radiation, 5 mg/kg daily for 5 days, Day 120",Absent are the large lesions and pronounced fibrosis
same,overall survival from pneumonitis and lung fibrosis,"[6]; 18 Gy whole thoracic lung irradiation, 5 mg/Kg sc in Cremophor days 1-5, at 90 days and 160",improved overall survival
same,lung histopathology,"[6]; C57BL/6 mice, 14.5Gy local thoracic radiation, 5 mg/kg once per day for 5 doses",Lung tissue is normal with no evident emphysema or edema or hyper cellularity or immune infiltrate
same,development of radiation fibrosis (late disease),"[6]; after 14 Gy, acute delivery (FIG. 18)",mitigates against the development of this late disease
same,inflammatory macrophage content and phenotypic markers in the lung,"[6]; after LTI, day 150",decrease in inflammatory macrophage content and phenotypic markers
same,mature macrophage cell content in lung,[6]; day 160 after LTI,greatly decreased
same,lung organoid growth,[7],mitigated the radiation damage and induced lung organoid growth
